Test [1] has as its target IDH2 R140Q (Homo sapiens (Human), UniProt P48735, R140Q). Briefly: In vitro assay for IDH2m R140Q inhibitors, cofactor depletion assay. The test is classed as biochemical. The following applies: IDH2 R140Q enzyme. From the text:
The following describes the experimental procedures used to obtain data on column 7 of Table 4.
The reaction is terminated by the addition of a second enzyme, diaphorase, and a corresponding substrate, resazurin. Diaphorase reduces resazurin to the highly fluorescent resorufin with the concomitant oxidation of NADPH to NADP, both halting the IDH2 reaction by depleting the available cofactor pool and facilitating quantitation of the amount of cofactor remaining after a specific time period through quantitative production of an easily detected fluorophore.
The test compound is then incubated for one hour at room temperature with the enzyme; before starting the IDH2 reaction with the addition of 10 μl of substrate mix containing 4 μM NADPH and 1.6 mM α-KG in the buffer described above. After a further 16 hours of incubation at room temperature, the reaction is halted and the remaining NADPH measured through conversion of resazurin to resorufin by the addition of 25 μl Stop Mix (36 μg/ml diaphorase enzyme and 60 μM resazurin; in buffer).

Test [2] deals with U87MG pLVX-IDH2 R140Q-neo cells. Briefly: U87MG pLVX-IDH2 R140Q-neo cell based assay, 2-HG by LC-MS. The following applies: Homo sapiens, U-87 MG.
The target in test [3] is IDH1 wt/IDH1 R132H heterodimer (Homo sapiens (Human), UniProt O75874, R132H). Briefly: In vitro assay for IDH1m R132H inhibitors, IDH1 wt/IDH1 R132H heterodimer, NADPH depletion (diaphorase/resazurin). The test is classed as biochemical. How it is done:
The following describes the experimental procedures that can be used to obtain data on columns 2 and 4 of Table 4 and column 2 of Table 5.
In the primary reaction, the reduction of α-KG acid to 2-HG is accompanied by a concomitant oxidation of NADPH to NADP. The amount of NADPH remaining at the end of the reaction time is measured in a secondary diaphorase/resazurin reaction in which the NADPH is consumed in a 1:1 molar ratio with the conversion of resazurin to the highly fluorescent resorufin.
The mixture of compound, enzyme, and cofactor is pre-incubated at room temperature for 1 hr prior to the addition of alpha-ketoglutarate. To perform the secondary reaction, 10 uL of 1× buffer containing 36 μg/ml diaphorase and […] resazurin is added to the primary reaction and incubated for a further 5 minutes at 25° C. […] Compounds or compound dilutions are prepared in 100% DMSO concentration and diluted 1:50 into the final reaction. […] IC50s are determined.
IDH1 or IDH2 wildtype (wt) and mutant heterodimers are expressed and purified by methods known in the art. […] Co-expression of IDH1wt-his and IDH1R132C-flag is carried out in sf9 insect cells. Cells (25 g) are resuspended in 250 ml of 50 mM Tirs, 500 mM NaCl, pH7.4, at 4° C. with stirring. Cells are disrupted with 4 passes through an M-Y110 Micro fluidizer (Microfluidics) set to 500 psi, and then centrifuged at 22,000 rcf for 20 min at 4° C. The supernatant is harvested and loaded at 15 cm/h on a Histrap FF 5*1 ml column (GE) which is equilibrated with 50 mM Tirs, 500 mM NaCl, pH7.4. Host cell contaminants are removed by washing the column with equilibration buffer followed by equilibration buffer containing 20 mM imidazole and 60 mM imidazole to baseline. IDH1wt-his homodimer and IDH1wt-his/IDH1R132C-flag are eluted by equilibration buffer containing 250 mM imidazole. Fractions eluted by 250 mM imidazole are pooled together and loaded at 15 cm/h onto a column pre-packed with 10 ml ANTI-FLAG® M2 Affinity Gel (Sigma), the column is equilibrated with 50 mM Tris, 500 mM NaCl, pH7.4. After washing with equilibration buffer, IDH1wt-his/IDH1R132C-flag heterodimer is eluted by equilibration buffer containing flag peptide (0.2 mg/ml). Aliquots of IDH1wt-his/IDH1R132C-flag are flash frozen in liquid N2 and stored at −80° C. Same conditions are used for the purification of IDH1wt-his/IDH1R132H-flag.
For orientation: Resazurin is reduced to fluorescent resorufin, in cell work by metabolically active cells.

[4] abbreviates: IDH1 wt/R132H heterodimer, NADPH/NADP, not saturated, read-out: IDH1 wt/R132H NADPH/NADP IC50 not saturated.

From US10028961B2, “Therapeutically active compounds and their methods of use” (AGIOS PHARMACEUTICALS, INC., priority 2013, dated 2018) come the findings set out here.

Like-named read-outs stand apart in the source and are kept apart here.

IDH2 R140Q, sequence (P48735 40-452 R140Q): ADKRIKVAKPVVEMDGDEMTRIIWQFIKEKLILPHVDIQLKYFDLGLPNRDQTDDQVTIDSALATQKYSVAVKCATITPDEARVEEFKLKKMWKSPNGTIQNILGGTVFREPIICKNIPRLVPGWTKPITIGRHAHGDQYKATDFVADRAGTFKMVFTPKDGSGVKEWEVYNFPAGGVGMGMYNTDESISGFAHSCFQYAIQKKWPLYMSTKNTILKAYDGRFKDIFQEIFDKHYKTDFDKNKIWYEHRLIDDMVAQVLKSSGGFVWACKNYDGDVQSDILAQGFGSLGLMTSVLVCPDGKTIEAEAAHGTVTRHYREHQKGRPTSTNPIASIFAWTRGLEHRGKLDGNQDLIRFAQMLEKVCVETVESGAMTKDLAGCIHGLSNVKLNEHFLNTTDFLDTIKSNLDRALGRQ
IDH1 wt/IDH1 R132H heterodimer, sequence (O75874 whole entry R132H): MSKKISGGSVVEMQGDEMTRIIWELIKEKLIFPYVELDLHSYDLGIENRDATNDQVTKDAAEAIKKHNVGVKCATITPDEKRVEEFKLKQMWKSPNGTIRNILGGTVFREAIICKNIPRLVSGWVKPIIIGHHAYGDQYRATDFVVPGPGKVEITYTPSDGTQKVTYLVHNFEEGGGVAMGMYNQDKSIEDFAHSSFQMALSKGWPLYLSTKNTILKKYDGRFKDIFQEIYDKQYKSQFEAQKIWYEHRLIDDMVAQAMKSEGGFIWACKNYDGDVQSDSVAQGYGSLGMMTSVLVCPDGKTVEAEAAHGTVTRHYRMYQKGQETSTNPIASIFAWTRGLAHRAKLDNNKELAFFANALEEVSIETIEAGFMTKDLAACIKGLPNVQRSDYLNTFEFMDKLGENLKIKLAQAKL
IDH1 wt/IDH1 R132H heterodimer, sequence (O75874 whole entry, stated change not applied): as the sequence (O75874 whole entry R132H) above, with H132R counted along it

For the molecule `FC1(F)CC2(CC(Nc3nc(Nc4ccnc(C(F)(F)F)c4)nc(-c4cccc(C(F)(F)F)n4)n3)C2)C1` [Compound 257], the IC50 in test [1] and in test [2] was less than 0.05 µM throughout.
Regarding `Cc1cnn(-c2nc(N[C@H](C)C3CC3)nc(N[C@H](C)C3CC3)n2)c1` [Compound 312], in test [3] (setting [4]), the IC50 was greater than 1 µM.
Still for that read-out and setting: under `C[C@@H](Nc1nc(NC2Cc3ccccc3C2)nc(-c2cccc(C(F)(F)F)n2)n1)C1CC1` [Compound 60] stands less than 0.05 µM; under `CC(CN1CCOCC1)Nc1nc(N[C@H](C)C2CC2)nc(-c2cccc(C(F)(F)F)n2)n1` (stereo partly drawn) [Compound 306], greater than 1 µM.
Turning to `C[C@@H](Nc1nc(N[C@H](C)C2CC2)nc(-c2cccc(OC(F)(F)F)c2)n1)C1CC1` [Compound 322], the IC50 in test [3] (setting [4]) was greater than 1 µM.
On to `N#CC1(c2cc(Nc3nc(NCC4CC4(F)F)nc(-c4cccc(C(F)(F)F)n4)n3)ccn2)CC1` (stereo not drawn) [Compound 362], for which the IC50 is 0.05 to 0.1 µM in test [3] (IDH1 wt/IDH1 R132H heterodimer, 300 μM NADP (saturated), read-out: IDH1 wt/R132H NADPH/NADP IC50 saturated) and less than 0.05 µM in test [1].
Take `FC1(F)CCC(Nc2nc(Nc3cc4ccccc4[nH]3)nc(-c3cccc(C(F)(F)F)n3)n2)C1` (stereo not drawn) [Compound 291]: the IC50 in test [3] (setting [4]) is 0.1 to 1 µM.
Same read-out and setting: under `C[C@@H](Nc1nc(N[C@H](C)C2CC2)nc(-c2cccc(Cl)c2)n1)C1CC1` [Compound 64] stands 0.05 to 0.1 µM; under `Cn1c(Nc2nc(NC3CCC(F)(F)C3)nc(-c3cccc(C(F)(F)F)n3)n2)cc2ccccc21` (stereo not drawn) [Compound 316], greater than 1 µM.
The same measure, in the same setting: under `C[C@@H](Nc1nc(N[C@H](C)C2CC2)nc(-c2cccc(C#N)n2)n1)C1CC1` [Compound 269] stands 0.1 to 1 µM; under `OC1CCCC1Nc1nc(NC2CCCC2O)nc(-c2cccc(Cl)n2)n1` (stereo not drawn) [Compound 290], 0.1 to 1 µM.
On to `CN1CCC(Nc2nc(NC3CCC(F)(F)C3)nc(-c3cccc(C(F)(F)F)n3)n2)C1` (stereo not drawn) [Compound 326], for which the IC50 in test [1] and in test [2] was greater than 1 µM throughout.
With `Clc1cccc(-c2nc(NC3[C@H]4COC[C@@H]34)nc(NC3[C@H]4COC[C@@H]34)n2)n1` (stereo partly drawn) [Compound 72, N^2,N^4-di((1R,5S)-3-oxabicyclo[3.1.0]hexan-6-yl)-6-(6-chloropyridin-2-yl)-1,3,5-triazine-2,4-diamine], the IC50 in test [1] was greater than 1 µM; in test [2], 0.05 to 0.1 µM.
Take `C[C@@H](Nc1nc(N[C@H](C)C2CC2)nc(-c2ccccn2)n1)C1CC1` [Compound 93]: in test [3] (setting [4]), the IC50 was greater than 1 µM.
On the same count and under the same terms, then `C[C@@H](Nc1nc(N[C@H](C)C2CC2)nc(-c2cncc(C(F)(F)F)c2)n1)C1CC1` [Compound 300], with 0.1 to 1 µM; and `Cc1cccc(-c2nc(NC3CCC(F)(F)CC3)nc(NC3CCC(F)(F)CC3)n2)n1` [Compound 282], with 0.1 to 1 µM.
With `C[C@@H](Nc1nc(N[C@H](C)C2CC2)nc(-c2cccc(C(N)=O)n2)n1)C1CC1` [Compound 307], the IC50 in test [3] (setting [4]) is greater than 1 µM.
As for `COCC(COC)Nc1nc(N[C@H](C)C2CC2)nc(-c2cccc(C(F)(F)F)n2)n1` [Compound 63], the IC50 in test [3] (setting [4]) lay within 0.05 to 0.1 µM.
Still for that read-out and setting: under `C[C@@H](Nc1nc(N[C@H](C)C2CC2)nc(-c2ccncc2)n1)C1CC1` [Compound 95] stands greater than 1 µM.
In the case of `COc1cccc(-c2nc(N[C@H](C)C3CC3)nc(N[C@H](C)C3CC3)n2)n1` [Compound 294], the IC50 in test [3] (setting [4]) was in the range of 0.1 to 1 µM.
In test [2], `c1ccc(-c2nc(NC3C4COCC43)nc(NC3C4COCC43)n2)cc1` (stereo not drawn) [Compound 71] had an IC50 of 0.05 to 0.1 µM.
For `C=Cc1cccc(-c2nc(N[C@H](C)C3CC3)nc(N[C@H](C)C3CC3)n2)n1` [Compound 240], the IC50 in test [3] (setting [4]) was less than 0.05 µM.
The same measure, in the same setting: then `Cc1nc(-c2nc(NC3CCC(F)(F)CC3)nc(NC3CCC(F)(F)CC3)n2)co1` [Compound 324], with greater than 1 µM; and `FC1(F)CCC(Nc2nc(NC3CCC(F)(F)CC3)nc(-c3cc(Cl)ccn3)n2)CC1` [Compound 314], with greater than 1 µM.
Same read-out and setting: under `CN1CCC(Nc2nc(NC3CCC(F)(F)C3)nc(-c3cccc(C(F)(F)F)n3)n2)C1` (stereo not drawn) [Compound 96] stands greater than 1 µM.
Still for that read-out and setting: under `Cc1cc(-c2nc(NC3CCC(F)(F)CC3)nc(NC3CCC(F)(F)CC3)n2)no1` [Compound 329] stands greater than 1 µM; under `C#CCNc1nc(N[C@H](C)C2CC2)nc(-c2cccc(C(F)(F)F)n2)n1` [Compound 284], 0.1 to 1 µM.
With `Fc1ccc(N2CC(Nc3nc(NC4CCC(F)(F)C4)nc(-c4cccc(C(F)(F)F)n4)n3)C2)cc1` (stereo not drawn) [Compound 313], the IC50 in test [3] (setting [4]) is greater than 1 µM.
On the same count and under the same terms, then `C[C@@H](Nc1nc(N[C@H](C)C2CC2)nc(-c2ccccc2Cl)n1)C1CC1` [Compound 94], with greater than 1 µM; and `COC(=O)c1cccc(-c2nc(N[C@H](C)C3CC3)nc(N[C@H](C)C3CC3)n2)n1` [Compound 310], with greater than 1 µM.
For `C[C@@H](Nc1nc(N[C@H](C)C2CC2)nc(-c2cccc(O)n2)n1)C1CC1` [Compound 327], in test [3] (setting [4]), the IC50 is greater than 1 µM.
Same read-out and setting: then `C[C@@H](Nc1nc(NCC(C)(C)C(N)=O)nc(-c2cccc(C(F)(F)F)n2)n1)C1CC1` [Compound 303], with greater than 1 µM; and `FC1(F)CCC(Nc2nc(NC3CCC(F)(F)CC3)nc(-c3ccn[nH]3)n2)CC1` [Compound 330], with greater than 1 µM.
For `CC(C)Nc1nc(NC2CCCOC2)nc(-c2ccccc2)n1` (stereo not drawn) [Compound 69, N^2-isopropyl-6-phenyl-N^4-(tetrahydro-2H-pyran-3-yl)-1,3,5-triazine-2,4-diamine], the IC50 in test [2] fell in the range of 0.1 to 1 µM.
Regarding `CC(CN1CCCCC1)Nc1nc(N[C@H](C)C2CC2)nc(-c2cccc(C(F)(F)F)n2)n1` (stereo partly drawn) [Compound 331], the IC50 in test [3] (setting [4]) is greater than 1 µM.
With `C[C@@H](Nc1nc(N[C@H](C)C2CC2)nc(-c2ccnc(C(F)(F)F)c2)n1)C1CC1` [Compound 323], the IC50 in test [3] (setting [4]) is greater than 1 µM.
Still for that read-out and setting: then `Fc1ccc([C@H]2C[C@H](Nc3nc(N[C@H]4C[C@H](c5ccc(F)cc5)C4)nc(-c4cccc(C(F)(F)F)n4)n3)C2)cc1` [Compound 299], with 0.1 to 1 µM.
On to `COC(=O)N1CCC(Nc2nc(NC3CCC(F)(F)C3)nc(-c3cccc(C(F)(F)F)n3)n2)C1` (stereo not drawn) [Compound 59], for which the IC50 in test [3] (setting [4]) is less than 0.05 µM.
On to `C=CCCNc1nc(NCCC=C)nc(-c2ccccc2)n1` [Compound 70], for which the IC50 in test [2] was 0.05 to 0.1 µM.
Take `C[C@@H](Nc1nc(N[C@H](C)C2CC2)nc(-c2ccc(Cl)cc2)n1)C1CC1` [Compound 65]: the “IDH1 wt/R132H NADPH/NADP IC50 not saturated” value in test [3] (IDH1 wt/R132H heterodimer, NADPH/NADP, not saturated) is on record as “No Fit”.
`C[C@@H](Nc1nc(N[C@H](C)C2CC2)nc(-c2cccc(C#N)c2)n1)C1CC1` [Compound 320]: the IC50 in test [3] (setting [4]) is greater than 1 µM.
On the same count and under the same terms, under `COCCC(C)Nc1nc(N[C@H](C)C2CC2)nc(-c2cccc(C(F)(F)F)n2)n1` (stereo partly drawn) [Compound 233] stands less than 0.05 µM; under `COC(=O)CCNc1nc(N[C@H](C)C2CC2)nc(-c2cccc(C(F)(F)F)n2)n1` [Compound 286], 0.1 to 1 µM; under `C[C@H](CO)Nc1nc(N[C@H](C)C2CC2)nc(-c2cccc(C(F)(F)F)n2)n1` [Compound 281], 0.1 to 1 µM.
On the same count and under the same terms, then `CC(C)Nc1nc(NC2CCCCC2)nc(-c2ccncc2)n1` [Compound 62], with 0.05 to 0.1 µM.
The same measure, in the same setting: under `COCCOCC(C)Nc1nc(N[C@H](C)C2CC2)nc(-c2cccc(C(F)(F)F)n2)n1` (stereo partly drawn) [Compound 295] stands 0.1 to 1 µM; under `Cn1ccc(-c2nc(NC3CCC(F)(F)CC3)nc(NC3CCC(F)(F)CC3)n2)n1` [Compound 304], greater than 1 µM.
